Experimental data taken from the NIST ThermoML archive (doi:10.1021/je200195q).
± gives the expanded uncertainty stated by the source.

Assay: activity coefficient (dimensionless); of the first substance listed, at infinite dilution; xn = mol fraction of the nth substance listed
Conditions: 101 kPa, Liquid, Chromatography, x1 = 0

## CCCCCCC [heptane] + CCn1cc[n+](C)c1.CS(=O)(=O)[O-]
312.55 K
  activity coefficient: 432 ± 30
322.45 K
  activity coefficient: 2230 ± 150
332.45 K
  activity coefficient: 497 ± 34

## CCCCCCCCCC [decane] + CCCCCCCCCCn1cc[n+](CCCCCCCCCC)c1C.O=S(=O)([N-]S(=O)(=O)C(F)(F)F)C(F)(F)F
323.1 K
  activity coefficient: 3.56 ± 0.24
333.15 K
  activity coefficient: 3.46 ± 0.24
343.15 K
  activity coefficient: 3.33 ± 0.23

## CCCC(C)=O [pentan-2-one] + CCCCCC[n+]1ccn(C)c1.FC(F)(F)C(F)(F)[P-](F)(F)(F)(C(F)(F)C(F)(F)F)C(F)(F)C(F)(F)F
312.8 K
  activity coefficient: 0.271 ± 0.03
332.85 K
  activity coefficient: 0.298 ± 0.031
354.65 K
  activity coefficient: 0.311 ± 0.031

## CCC[N+](=O)[O-] [1-nitropropane] + CCCCCCCCCCn1cc[n+](CCCCCCCCCC)c1C.O=S(=O)([N-]S(=O)(=O)C(F)(F)F)C(F)(F)F
323.1 K
  activity coefficient: 0.504 ± 0.038
333.15 K
  activity coefficient: 0.487 ± 0.037
343.15 K
  activity coefficient: 0.479 ± 0.037

## CC(C)CO [2-methyl-1-propanol] + CCCCCCCCCCn1cc[n+](CCCCCCCCCC)c1C.O=S(=O)([N-]S(=O)(=O)C(F)(F)F)C(F)(F)F
323.1 K
  activity coefficient: 1.3 ± 0.084
333.15 K
  activity coefficient: 1.17 ± 0.075
343.15 K
  activity coefficient: 1.06 ± 0.067

## CCC(C)CC [3-methylpentane] + CCn1cc[n+](C)c1.CS(=O)(=O)[O-]
312.55 K
  activity coefficient: 157 ± 11
322.45 K
  activity coefficient: 135 ± 9.3
332.45 K
  activity coefficient: 115 ± 7.9

## CC1CCCC1 [methylcyclopentane] + CCCCCCCCCCn1cc[n+](CCCCCCCCCC)c1C.O=S(=O)([N-]S(=O)(=O)C(F)(F)F)C(F)(F)F
323.1 K
  activity coefficient: 1.35 ± 0.088
333.15 K
  activity coefficient: 1.33 ± 0.086
343.15 K
  activity coefficient: 1.3 ± 0.084

## Cc1ccccc1 [toluene] + CCCCCC[n+]1ccn(C)c1.FC(F)(F)C(F)(F)[P-](F)(F)(F)(C(F)(F)C(F)(F)F)C(F)(F)C(F)(F)F
312.8 K
  activity coefficient: 0.674 ± 0.046
332.85 K
  activity coefficient: 0.727 ± 0.048
354.65 K
  activity coefficient: 0.753 ± 0.05

## CC(C)O [propan-2-ol] + CCCCCC[n+]1ccn(C)c1.FC(F)(F)C(F)(F)[P-](F)(F)(F)(C(F)(F)C(F)(F)F)C(F)(F)C(F)(F)F
312.8 K
  activity coefficient: 2.06 ± 0.14
332.85 K
  activity coefficient: 1.62 ± 0.11
354.65 K
  activity coefficient: 1.26 ± 0.081

## CC(C)CO [2-methyl-1-propanol] + CCCCn1cc[n+](C)c1.O=S(=O)([N-]S(=O)(=O)C(F)(F)C(F)(F)F)C(F)(F)C(F)(F)F
322.55 K
  activity coefficient: 2.26 ± 0.15
342.75 K
  activity coefficient: 1.84 ± 0.12
362.65 K
  activity coefficient: 1.57 ± 0.1

## CCCCO [butan-1-ol] + CCCCn1cc[n+](C)c1.O=S(=O)([N-]S(=O)(=O)C(F)(F)C(F)(F)F)C(F)(F)C(F)(F)F
322.55 K
  activity coefficient: 2.49 ± 0.17
342.75 K
  activity coefficient: 2 ± 0.14
362.65 K
  activity coefficient: 1.7 ± 0.11

## ClCCl [dichloromethane] + CCn1cc[n+](C)c1.CS(=O)(=O)[O-]
312.55 K
  activity coefficient: 0.471 ± 0.037
322.45 K
  activity coefficient: 0.531 ± 0.039
332.45 K
  activity coefficient: 1.3 ± 0.084

## C#CCCCCC [1-heptyne] + CCCCn1cc[n+](C)c1.O=S(=O)([N-]S(=O)(=O)C(F)(F)C(F)(F)F)C(F)(F)C(F)(F)F
322.55 K
  activity coefficient: 3.91 ± 0.27
342.75 K
  activity coefficient: 3.76 ± 0.26
362.65 K
  activity coefficient: 3.58 ± 0.24

## CC1CCCC1 [methylcyclopentane] + CCCCCC[n+]1ccn(C)c1.FC(F)(F)C(F)(F)[P-](F)(F)(F)(C(F)(F)C(F)(F)F)C(F)(F)C(F)(F)F
312.8 K
  activity coefficient: 4.58 ± 0.31
332.85 K
  activity coefficient: 4.09 ± 0.28
354.65 K
  activity coefficient: 3.52 ± 0.24

## C=CCCCC [hex-1-ene] + CCCCn1cc[n+](C)c1.O=S(=O)([N-]S(=O)(=O)C(F)(F)C(F)(F)F)C(F)(F)C(F)(F)F
322.55 K
  activity coefficient: 6.07 ± 0.41
342.75 K
  activity coefficient: 5.55 ± 0.38
362.65 K
  activity coefficient: 5.24 ± 0.36

## CCCC(C)=O [pentan-2-one] + CCCCCCCCCCn1cc[n+](CCCCCCCCCC)c1C.O=S(=O)([N-]S(=O)(=O)C(F)(F)F)C(F)(F)F
323.1 K
  activity coefficient: 0.397 ± 0.034
333.15 K
  activity coefficient: 0.404 ± 0.034
343.15 K
  activity coefficient: 0.407 ± 0.034

## CCCCCCC [heptane] + CCCCn1cc[n+](C)c1.O=S(=O)([N-]S(=O)(=O)C(F)(F)C(F)(F)F)C(F)(F)C(F)(F)F
322.55 K
  activity coefficient: 13.6 ± 0.93
342.75 K
  activity coefficient: 12.4 ± 0.84
362.65 K
  activity coefficient: 11.6 ± 0.79

## c1ccccc1 [benzene] + CCCCCC[n+]1ccn(C)c1.FC(F)(F)C(F)(F)[P-](F)(F)(F)(C(F)(F)C(F)(F)F)C(F)(F)C(F)(F)F
312.8 K
  activity coefficient: 0.517 ± 0.039
332.85 K
  activity coefficient: 0.552 ± 0.04
354.65 K
  activity coefficient: 0.564 ± 0.041

## c1ccsc1 [thiophene] + CCCCn1cc[n+](C)c1.O=S(=O)([N-]S(=O)(=O)C(F)(F)C(F)(F)F)C(F)(F)C(F)(F)F
322.55 K
  activity coefficient: 0.977 ± 0.061
342.75 K
  activity coefficient: 0.973 ± 0.061
362.65 K
  activity coefficient: 0.981 ± 0.062

## Cc1ccccc1C [1,2-dimethylbenzene] + CCCCn1cc[n+](C)c1.O=S(=O)([N-]S(=O)(=O)C(F)(F)C(F)(F)F)C(F)(F)C(F)(F)F
322.55 K
  activity coefficient: 1.87 ± 0.13
342.75 K
  activity coefficient: 1.89 ± 0.13
362.65 K
  activity coefficient: 1.97 ± 0.13

## CC(C)O [propan-2-ol] + CCCCCCCCCCn1cc[n+](CCCCCCCCCC)c1C.O=S(=O)([N-]S(=O)(=O)C(F)(F)F)C(F)(F)F
323.1 K
  activity coefficient: 1.27 ± 0.082
333.15 K
  activity coefficient: 1.14 ± 0.073
343.15 K
  activity coefficient: 1.03 ± 0.065
